In paper PMC10458893, “Design of Protegrin-1 Analogs with Improved Antibacterial Selectivity” (Pharmaceutics, 2023):
≈ marks a conversion by molar mass, not a printed value. Like-named read-outs stand apart in the source and are kept apart here. Positions of bridges follow the written chain, without caps; N, C: chain ends. Residues, ends and D or L forms follow the SMILES beside them.

Columns and labels:
[1] = test system: K. pneumoniae ATCC 700603; type: cell-based, Klebsiella pneumoniae; details: ATCC 700603, 24 h
Procedure: (§1) The antimicrobial activity of the peptides was determined using two-fold serial dilutions in sterile 96-well flat-bottom polystyrene microplates (Eppendorf, Hamburg, Germany) (Cat. No. 0030730011), as previously described. The following strains of bacteria were used: E. coli ATCC 25922, E. coli ML35p (ATCC collection), E. coli BW 25113 (Keio collection), Pseudomonas aeruginosa PAO1 (ATCC collection), P. aeruginosa ATCC 27853, Klebsiella pneumoniae ATCC 700603, Staphylococcus aureus 209P (ATCC collection), S. aureus ATCC 29213, and Micrococcus luteus B-1314 (VKM collection). Acinetobacter baumannii (strain XDR CI 2675) was provided by the I.M. Sechenov First Moscow State Medical University hospital. After a 24 h incubation period, the metabolic activity of the bacteria was assessed by adding 20 µL of a redox indicator, resazurin (Sigma-Aldrich, St. Louis, MO, USA), at a concentration of 0.1 mg/mL, to the wells. The plate was then incubated for a further two hours. The minimum inhibitory concentration (MIC) was determined as the lowest concentration of the peptide at which no color change in the resazurin indicator was observed. The results were presented as median values, which were determined based on at least three independent experiments carried out in triplicate.

[2] = test system: all the test strains; type: cell-based; details: geometric mean over the 10 test strains
Procedure: as §1

[3] = test system: E. coli ML35p; type: cell-based
Procedure: as §1

[4] = test system: E. coli BW 25113; type: cell-based; details: two-fold serial dilutions, 24 h incubation, resazurin read-out; median of at least three independent experiments in triplicate
Procedure: as §1

[5] = test system: E. coli ATCC 25922; type: cell-based; details: ATCC 25922, 24 h
Procedure: as §1

[6] = test system: Acinetobacter baumannii (strain XDR CI 2675); type: cell-based
Procedure: as §1

[7] = test system: P. aeruginosa PAO1; type: cell-based, Pseudomonas aeruginosa; details: PAO1, 24 h
Procedure: as §1

[8] = test system: P. aeruginosa ATCC 27853; type: cell-based, Pseudomonas aeruginosa; details: ATCC 27853, 24 h
Procedure: as §1

[9] = test system: human keratinocyte cell line (HaCaT); experiment: Cytotoxicity MTT assay; type: cell-based; details: 18 h, 128
Procedure: In order to evaluate the cytotoxicity of the peptides against a human keratinocyte cell line (HaCaT, Cat. No. 300493) (Cell Lines Service, Köln, Germany), the colorimetric 3-(4,5-dimethylthiazol-2-yl)-2,5-diphenyltetrazolium bromide (MTT) dye reduction assay was performed, as described in a previous publication. Wells containing no peptide were used as a 100% survival control. Each peptide was tested in two separate experiments to ensure the reliability of the results.

[10] = test system: M. luteus B-1314; type: cell-based, Micrococcus luteus; details: B-1314, 24 h
Procedure: as §1

[11] = test system: S. aureus ATCC 29213; type: cell-based, Staphylococcus aureus; details: ATCC 29213, 24 h
Procedure: as §1

[12] = test system: S. aureus 209P; type: cell-based, Staphylococcus aureus; details: 24 h
Procedure: as §1

[13] = test system: freshly isolated human erythrocytes (hRBCs); experiment: Hemolysis assay (hemoglobin release); type: cell-based; details: red cells of human, 64
Description: To assess the hemolytic activity of the compounds, freshly isolated human erythrocytes (hRBCs) were used according to the methodology described in a previous study. Melittin was used as a positive peptide control that induces significant hemolysis. Isotonic phosphate buffer (PBS) served as a negative control, while 0.1% Triton X-100 solution was used as a control for complete hemolysis.

[14] = two-fold serial dilutions, 24 h incubation, resazurin read-out, median of at least three independent experiments in triplicate
[15] = strain XDR CI 2675, two-fold serial dilutions, 24 h incubation, resazurin read-out, median of at least three independent experiments in triplicate

Structure (SMILES)	MIC, K. pneumoniae ATCC 700603 [1] [µM]	MIC (GM), geometric mean of the peptide's MICs against all the test strains [2] [µM]	MIC, E. coli ML35p ([3]; ML35p, 24 h) [µM]	MIC, E. coli BW 25113 [4] [µM]	MIC, E. coli ATCC 25922 [5] [µM]	MIC, A. baumannii ([6]; strain XDR CI 2675, 24 h) [µM]	MIC, P. aeruginosa PAO1 [7] [µM]	MIC, P. aeruginosa ATCC 27853 [8] [µM]	Cell Viability, % (128 μM) [9]	MIC, M. luteus B-1314 [10] [µM]	MIC, S. aureus ATCC 29213 [11] [µM]	MIC, S. aureus 209P [12] [µM]	Hemolytic activity, % (64 μM) [13]	MIC, E. coli ML35p [3, 14] [µM]	MIC, A. baumannii [6, 15] [µM]
CC(C)[C@@H]1NC(=O)[C@@H]2CSSC[C@H](NC(=O)[C@H](Cc3ccc(O)cc3)NC(=O)[C@@H](NC(=O)[C@H](C)NC(=O)[C@H](CCCNC(=N)N)NC(=O)CNC(=O)CNC(=O)[C@@H](N)CCCNC(=N)N)CSSC[C@@H](C(=O)N[C@@H](CCCNC(=N)N)C(=O)NCC(=O)N[C@@H](CCCNC(=N)N)C(=O)O)NC1=O)C(=O)N[C@@H](CCCNC(=N)N)C(=O)N[C@@H](CCCNC(=N)N)C(=O)N[C@@H](CCCNC(=N)N)C(=O)N[C@@H](Cc1ccccc1)C(=O)N2 [[L5A,V16R]] (H-RGGRACYCRRRFCVCRGR-OH; disulfide 6-15, 8-13; N-terminus and C-terminus assumed)	32 (≈ 69.5 µg/mL)	4.9	1 (≈ 2.17 µg/mL)	2 (≈ 4.34 µg/mL)	2 (≈ 4.34 µg/mL)	0.5 (≈ 1.09 µg/mL)	8 (≈ 17.4 µg/mL)	4 (≈ 8.69 µg/mL)	94.1 (± 3.51) %	4 (≈ 8.69 µg/mL)	32 (≈ 69.5 µg/mL)	32 (≈ 69.5 µg/mL)	1.0 (±0.01) %	–	–
CC(C)[C@H](NC(=O)[C@@H]1CSSC[C@H](NC(=O)[C@H](C)NC(=O)[C@H](CCCNC(=N)N)NC(=O)CNC(=O)CNC(=O)[C@@H](N)CCCNC(=N)N)C(=O)N[C@@H](Cc2ccc(O)cc2)C(=O)N[C@H]2CSSC[C@H](NC(=O)[C@H](Cc3ccccc3)NC(=O)[C@H](CCCNC(=N)N)NC(=O)[C@H](CCCNC(=N)N)NC(=O)[C@H](CCCNC(=N)N)NC2=O)C(=O)N[C@@H](C(C)C)C(=O)N1)C(=O)NCC(=O)N[C@@H](CCCNC(=N)N)C(=O)O [[L5A]] (H-RGGRACYCRRRFCVCVGR-OH; disulfide 6-15, 8-13; N-terminus and C-terminus assumed)	1 (≈ 2.11 µg/mL)	0.4	–	0.125 (≈ 0.264 µg/mL)	0.5 (≈ 1.06 µg/mL)	–	0.5 (≈ 1.06 µg/mL)	0.25 (≈ 0.529 µg/mL)	10.0 (±3.27) %	0.5 (≈ 1.06 µg/mL)	1 (≈ 2.11 µg/mL)	1 (≈ 2.11 µg/mL)	40.3 (±6.95) %	0.25 (≈ 0.529 µg/mL)	0.25 (≈ 0.529 µg/mL)
CC(C)[C@H](NC(=O)[C@@H]1CSSC[C@H](NC(=O)[C@H](CCCNC(=N)N)NC(=O)[C@H](CCCNC(=N)N)NC(=O)CNC(=O)CNC(=O)[C@@H](N)CCCNC(=N)N)C(=O)N[C@@H](Cc2ccc(O)cc2)C(=O)N[C@H]2CSSC[C@H](NC(=O)[C@H](Cc3ccccc3)NC(=O)[C@H](CCCNC(=N)N)NC(=O)[C@H](CCCNC(=N)N)NC(=O)[C@H](CCCNC(=N)N)NC2=O)C(=O)N[C@@H](C(C)C)C(=O)N1)C(=O)NCC(=O)N[C@@H](CCCNC(=N)N)C(=O)O [[L5R]] (H-RGGRRCYCRRRFCVCVGR-OH; disulfide 6-15, 8-13; N-terminus and C-terminus assumed)	8 (≈ 17.6 µg/mL)	1.2	–	0.25 (≈ 0.55 µg/mL)	1 (≈ 2.2 µg/mL)	–	1 (≈ 2.2 µg/mL)	1 (≈ 2.2 µg/mL)	7.7 (± 4.64) %	1 (≈ 2.2 µg/mL)	4 (≈ 8.8 µg/mL)	4 (≈ 8.8 µg/mL)	14.1 (±2.13) %	0.5 (≈ 1.1 µg/mL)	0.5 (≈ 1.1 µg/mL)
CC(C)C[C@H](NC(=O)[C@H](CCCNC(=N)N)NC(=O)CNC(=O)CNC(=O)[C@@H](N)CCCNC(=N)N)C(=O)N[C@H]1CSSC[C@@H](C(=O)N[C@@H](CCCNC(=N)N)C(=O)NCC(=O)N[C@@H](CCCNC(=N)N)C(=O)O)NC(=O)[C@H](C)NC(=O)[C@@H]2CSSC[C@H](NC(=O)[C@H](Cc3ccc(O)cc3)NC1=O)C(=O)N[C@@H](CCCNC(=N)N)C(=O)N[C@@H](CCCNC(=N)N)C(=O)N[C@@H](CCCNC(=N)N)C(=O)N[C@@H](Cc1ccccc1)C(=O)N2 [[V14A,V16R]] (H-RGGRLCYCRRRFCACRGR-OH; disulfide 6-15, 8-13; N-terminus and C-terminus assumed)	32 (≈ 69.9 µg/mL)	4.9	1 (≈ 2.19 µg/mL)	2 (≈ 4.37 µg/mL)	2 (≈ 4.37 µg/mL)	0.5 (≈ 1.09 µg/mL)	8 (≈ 17.5 µg/mL)	4 (≈ 8.74 µg/mL)	110.6 (± 6.68) %	4 (≈ 8.74 µg/mL)	32 (≈ 69.9 µg/mL)	32 (≈ 69.9 µg/mL)	1.1 (±0.15) %	–	–
CC(C)C[C@H](NC(=O)[C@H](CCCNC(=N)N)NC(=O)CNC(=O)CNC(=O)[C@@H](N)CCCNC(=N)N)C(=O)N[C@H]1CSSC[C@@H](C(=O)N[C@H](C(=O)NCC(=O)N[C@@H](CCCNC(=N)N)C(=O)O)C(C)C)NC(=O)[C@H](C)NC(=O)[C@@H]2CSSC[C@H](NC(=O)[C@H](Cc3ccc(O)cc3)NC1=O)C(=O)N[C@@H](CCCNC(=N)N)C(=O)N[C@@H](CCCNC(=N)N)C(=O)N[C@@H](CCCNC(=N)N)C(=O)N[C@@H](Cc1ccccc1)C(=O)N2 [[V14A]] (H-RGGRLCYCRRRFCACVGR-OH; disulfide 6-15, 8-13; N-terminus and C-terminus assumed)	1 (≈ 2.13 µg/mL)	0.4	0.25 (≈ 0.532 µg/mL)	0.125 (≈ 0.266 µg/mL)	0.5 (≈ 1.06 µg/mL)	0.125 (≈ 0.266 µg/mL)	0.5 (≈ 1.06 µg/mL)	0.25 (≈ 0.532 µg/mL)	12.05 (± 2.8) %	0.5 (≈ 1.06 µg/mL)	1 (≈ 2.13 µg/mL)	1 (≈ 2.13 µg/mL)	39.0 (±10.2) %	–	–
CC(C)C[C@H](NC(=O)[C@H](CCCNC(=N)N)NC(=O)CNC(=O)CNC(=O)[C@@H](N)CCCNC(=N)N)C(=O)N[C@H]1CSSC[C@@H](C(=O)N[C@H](C(=O)NCC(=O)N[C@@H](CCCNC(=N)N)C(=O)O)C(C)C)NC(=O)[C@H](CCCNC(=N)N)NC(=O)[C@@H]2CSSC[C@H](NC(=O)[C@H](Cc3ccc(O)cc3)NC1=O)C(=O)N[C@@H](CCCNC(=N)N)C(=O)N[C@@H](CCCNC(=N)N)C(=O)N[C@@H](CCCNC(=N)N)C(=O)N[C@@H](Cc1ccccc1)C(=O)N2 [[V14R]] (H-RGGRLCYCRRRFCRCVGR-OH; disulfide 6-15, 8-13; N-terminus and C-terminus assumed)	32 (≈ 70.8 µg/mL)	9.8	4 (≈ 8.85 µg/mL)	2 (≈ 4.43 µg/mL)	4 (≈ 8.85 µg/mL)	2 (≈ 4.43 µg/mL)	32 (≈ 70.8 µg/mL)	>32	98.6 (± 6.0) %	2 (≈ 4.43 µg/mL)	32 (≈ 70.8 µg/mL)	32 (≈ 70.8 µg/mL)	1.2 (±0.43) %	–	–
